Results published in patent US9006433B2, “Substituted pyrimidines” (Merck Sharp & Dohme Corp., priority 2010, dated 2015).

Biological target: T1, PHD2 (Homo sapiens, UniProt Q9GZT9)
T1 construct: FLAG-tagged full length PHD2 expressed in and purified from baculovirus-infected Sf9 cells; FLAG; made in house; host or cells: baculovirus-infected Sf9 cells
Experiment: PHD2 inhibition assay (time resolved fluorescence, HIF-1α peptide hydroxylation / VHL complex detection)
Assay type: biochemical
Details: FLAG-tagged full length PHD2; 0.2 μM 2-oxoglutarate, 0.5 μM HIF-1α peptide
Experimental: To each well of a 96-well plate was added 1 μL of test compound in DMSO and 20 μl of assay buffer (50 mM Iris pH 7.4/0.01% Tween-20/0.1 mg/ml bovine serum albumin/10 μM ferrous sulfate/1 mM sodium ascorbate/20 μg/ml catalase) containing 0.15 μg/ml FLAG-tagged full length PHD2 expressed in and purified from baculovirus-infected Sf9 cells. After a 30 min preincubation at room temperature, the enzymatic reactions were initiated by the addition of […] of substrates (final concentrations of 0.2 μM 2-oxoglutarate and 0.5 μM HIF-1α peptide biotinyl-DLDLEMLAPYIPMDDDFQL (SEQ ID NO:1)). After 2 hr at room temperature, the reactions were terminated and signals were developed by the addition of a 25 μL quench/detection mix to a final concentration of 1 mM ortho-phenanthroline, 0.1 mM EDTA, 0.5 nM anti-(His)6 LANCE reagent (Perkin-Elmer Life Sciences), 100 nM AF647-labeled streptavidin (Invitrogen), and 2 μg/ml (His)-6-VHL complex (S. Tan(2001) Protein Expr. Purif. 21, 224-234). The ratio of time resolved fluorescence signals at 665 and 620 nm was determined, and percent inhibition was calculated relative to an uninhibited control sample run in parallel.

T1 sequence (Q9GZT9 whole entry, species assumed): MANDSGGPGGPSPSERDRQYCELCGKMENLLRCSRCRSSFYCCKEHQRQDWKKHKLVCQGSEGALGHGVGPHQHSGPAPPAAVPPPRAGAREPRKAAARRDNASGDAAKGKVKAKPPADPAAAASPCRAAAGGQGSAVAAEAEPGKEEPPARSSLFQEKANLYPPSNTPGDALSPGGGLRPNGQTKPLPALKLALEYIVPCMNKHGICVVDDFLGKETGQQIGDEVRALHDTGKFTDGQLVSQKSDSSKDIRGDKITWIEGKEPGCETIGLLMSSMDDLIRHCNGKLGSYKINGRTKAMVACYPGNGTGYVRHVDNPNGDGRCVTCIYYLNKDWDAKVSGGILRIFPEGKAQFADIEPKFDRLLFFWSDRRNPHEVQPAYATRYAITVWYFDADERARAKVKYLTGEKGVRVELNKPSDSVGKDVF

| SMILES | IC50 [nM] |
| --- | --- |
| N#Cc1ccc(C(=O)Nc2cnc(-n3cccn3)nc2O)cc1 [Compound 3-9, 4-cyano-N-(4-hydroxy-2-(1H-pyrazol-1-yl)pyrimidin-5-yl)benzamide] | 20 to 100 |
| O=C(Nc1cnc(-n2cccn2)nc1O)c1cccc(Oc2ccccc2)c1 [Compound 3-21, N-(4-hydroxy-2-(1H-pyrazol-1-yl)pyrimidin-5-yl)-3-phenoxybenzamide] | 0.5 to 20 |
| COc1cccc(C(=O)Nc2cnc(-n3cccn3)nc2O)c1 [Compound 3-12, N-(4-hydroxy-2-(1H-pyrazol-1-yl)pyrimidin-5-yl)-3-methoxybenzamide] | 20 to 100 |
| CS(=O)(=O)c1ccccc1C(=O)Nc1cnc(-n2cccn2)nc1O [Compound 3-14, N-(4-hydroxy-2-(1H-pyrazol-1-yl)pyrimidin-5-yl)-2-(methylsulfonyl)benzamide] | 100 to 10000 |
| O=C(Nc1cnc(-n2cccn2)nc1O)c1cccc(C(F)(F)F)c1 [Compound 3-4, 3-(trifluoromethyl)-N-(4-hydroxy-2-(1H-pyrazol-1-yl)pyrimidin-5-yl)benzamide] | 0.5 to 20 |
| O=C(Nc1cnc(-n2cccn2)nc1O)c1ccc(-c2ccccc2)cc1 [Compound 3-19, N-[4-hydroxy-2-(1H-pyrazol-1-yl)pyrimidin-5-yl]biphenyl-4-carboxamide] | 0.5 to 20 |
| O=C(CCc1ccccc1)Nc1cnc(-n2cccn2)nc1O [Compound 3-44, N-(4-hydroxy-2-(1H-pyrazol-1-yl)pyrimidin-5-yl)-3-phenylpropanamide] | 20 to 100 |
| O=C(Nc1cnc(-n2cccn2)nc1O)C1(c2ccccc2)CC1 [Compound 3-38, N-(4-hydroxy-2-(1H-pyrazol-1-yl)pyrimidin-5-yl)-1-phenylcyclopropanecarboxamide] | 20 to 100 |
| COc1ccc(OC(=O)Nc2cnc(-n3cccn3)nc2O)cc1 [Compound 5-14, 4-methoxyphenyl 4-hydroxy-2-(1H-pyrazol-1-yl)pyrimidin-5-ylcarbamate] | 20 to 100 |
| COc1ccccc1CC(=O)Nc1cnc(-n2cccn2)nc1O [Compound 3-30, N-(4-hydroxy-2-(1H-pyrazol-1-yl)pyrimidin-5-yl)-2-(2-methoxyphenyl)acetamide] | 0.5 to 20 |
| O=C(Nc1cnc(-n2cccn2)nc1O)c1ccccc1C(F)(F)F [Compound 3-10, 2-(trifluoromethyl)-N-(4-hydroxy-2-(1H-pyrazol-1-yl)pyrimidin-5-yl)benzamide] | 0.5 to 20 |
| CC(C)(C(=O)Nc1cnc(-n2cccn2)nc1O)c1ccccc1 [Compound 3-37, N-(4-hydroxy-2-(1H-pyrazol-1-yl)pyrimidin-5-yl)-2-methyl-2-phenylpropanamide] | 0.5 to 20 |
| O=C(Nc1cnc(-n2cccn2)nc1O)c1ccccc1Oc1ccccc1 [Compound 3-20, N-(4-hydroxy-2-(1H-pyrazol-1-yl)pyrimidin-5-yl)-2-phenoxybenzamide] | 20 to 100 |
| O=C(Nc1cnc(-n2cccn2)nc1O)c1ccc(Oc2ccccc2)cc1 [Compound 3-22, N-(4-hydroxy-2-(1H-pyrazol-1-yl)pyrimidin-5-yl)-4-phenoxybenzamide] | 0.5 to 20 |
| O=C(Cc1cccc(Cl)c1)Nc1cnc(-n2cccn2)nc1O [Compound 3-24, 2-(3-chlorophenyl)-N-(4-hydroxy-2-(1H-pyrazol-1-yl)pyrimidin-5-yl)acetamide] | 0.5 to 20 |
| N#Cc1cccc(CC(=O)Nc2cnc(-n3cccn3)nc2O)c1 [Compound 3-26, 2-(3-cyanophenyl)-N-(4-hydroxy-2-(1H-pyrazol-1-yl)pyrimidin-5-yl)acetamide] | 0.5 to 20 |
| O=C(Cc1ccncc1)Nc1cnc(-n2cccn2)nc1O [Compound 3-41, N-(4-hydroxy-2-(1H-pyrazol-1-yl)pyrimidin-5-yl)-2-(pyridin-4-yl)acetamide] | 20 to 100 |
| O=C(Nc1cnc(-n2cccn2)nc1O)C1CCCc2ccccc21 (stereo not shown) [Compound 3-52, 1,2,3,4-tetrahydro-N-(4-hydroxy-2-(1H-pyrazol-1-yl)pyrimidin-5-yl)naphthalene-1-carboxamide] | 0.5 to 20 |

Further lines, results first:

| IC50 [nM] | SMILES |
| --- | --- |
| 20 to 100 | O=C(Nc1cnc(-c2ccccn2)nc1O)C(c1ccccc1)c1ccccc1 [Compound 10-1, N-(4-hydroxy-2-(pyridin-2-yl)pyrimidin-5-yl)-2,2-diphenylacetamide] |
| 20 to 100 | O=S(=O)(Nc1cnc(-n2cccn2)nc1O)c1ccc(Cl)cc1 [Compound 4-1, 4-chloro-N-[4-hydroxy-2-(1H-pyrazol-1-yl)pyrimidin-5-yl]benzenesulfonamide] |
| 100 to 10000 | O=S(=O)(Nc1cnc(-n2cccn2)nc1O)c1cccc(Cl)c1 [Compound 4-3, 3-chloro-N-[4-hydroxy-2-(1H-pyrazol-1-yl)pyrimidin-5-yl]benzenesulfonamide] |
| 0.5 to 20 | O=C(NCc1ccccc1)Nc1cnc(-n2cccn2)nc1O [Compound 5-2, 1-benzyl-3-(4-hydroxy-2-(1H-pyrazol-1-yl)pyrimidin-5-yl)urea] |
| 20 to 100 | O=C(Nc1cnc(-n2cccn2)nc1O)NC1CCCCC1 [Compound 5-4, 1-cyclohexyl-3-(4-hydroxy-2-(1H-pyrazol-1-yl)pyrimidin-5-yl)urea] |
| 100 to 10000 | Oc1nc(-n2cccn2)ncc1-c1cnn(-c2ccccc2)c1 [Compound 11-1, 5-(1-phenyl-1H-pyrazol-4-yl)-2-(1H-pyrazol-1-yl)pyrimidin-4-ol] |
| 100 to 10000 | O=S(=O)(Cc1ccc(C(F)(F)F)cc1)Nc1cnc(-n2cccn2)nc1O [Compound 4-4, N-[4-hydroxy-2-(1H-pyrazol-1-yl)pyrimidin-5-yl]-1-[4-(trifluoromethyl)phenyl]methanesulfonamide] |
| 20 to 100 | CC(C)(C)CCOC(=O)Nc1cnc(-n2cccn2)nc1O [Compound 5-15, 3,3-dimethylbutyl 4-hydroxy-2-(1H-pyrazol-1-yl)pyrimidin-5-ylcarbamate] |
| 20 to 100 | O=S(=O)(Cc1ccc(Cl)cc1)Nc1cnc(-n2cccn2)nc1O [Compound 4-2, 1-(4-chlorophenyl)-N-[4-hydroxy-2-(1H-pyrazol-1-yl)pyrimidin-5-yl]methanesulfonamide] |
| 100 to 10000 | Cc1ccc(S(=O)(=O)NC(=O)c2cnc(-c3cccnn3)nc2O)cc1 [Compound 13-1, 4-hydroxy-2-(pyridazin-3-yl)-N-tosylpyrimidine-5-carboxamide] |
| 100 to 10000 | CCCCOC(=O)Nc1cnc(-n2cccn2)nc1O [Compound 5-13, butyl 4-hydroxy-2-(1H-pyrazol-1-yl)pyrimidin-5-ylcarbamate] |
| 20 to 100 | O=C(Nc1cnc(-n2cccn2)nc1O)OC1CCCC1 [Compound 5-11, cyclopentyl 4-hydroxy-2-(1H-pyrazol-1-yl)pyrimidin-5-ylcarbamate] |
| 100 to 10000 | Oc1nc(-n2cccn2)ncc1-c1ccccc1 [Compound 11-3, 5-phenyl-2-(1H-pyrazol-1-yl)pyrimidin-4-ol] |
| 100 to 10000 | CC(C)NC(=O)Cc1cnc(-n2cccn2)nc1O [Compound 12-3, 2-(4-hydroxy-2-(1H-pyrazol-1-yl)pyrimidin-5-yl)-N-isopropylacetamide] |
| 100 to 10000 | O=C(Nc1ccccc1)Nc1cnc(-n2cccn2)nc1O [Compound 5-1, 1-(4-hydroxy-2-(1H-pyrazol-1-yl)pyrimidin-5-yl)-3-phenylurea] |
| 0.5 to 20 | O=C(Nc1cnc(-n2cccn2)nc1O)C1Cc2ccccc2C1 [Compound 3-55, 2,3-dihydro-N-(4-hydroxy-2-(1H-pyrazol-1-yl)pyrimidin-5-yl)-1H-indene-2-carboxamide] |
